Results as given in US20040022733A1, “Conjugated lysine copolymers” (priority 2002, published 2004).

Test system: rat mammary adenocarcinoma cells (ATCC 13762, Mat B cells)
Test: MR imaging on a rat tumor model (tumor enhancement)
Assay type: in vivo
Description: Imaging was done on a rat tumor model. Specifically, rat mammary adenocarcinoma cells (ATCC 13762, Mat B cells) were implanted in Fisher 344 female rats ([…] in 0.5 ml phosphate buffered saline). After 7-9 days, tumors were about 10 mm in diameter and the imaging was done at that point. Imaging was performed using a GE CSI scanner at 2T with a 33 cm bore. A birdcage quadrature coil was used for transmission and receiving. T1 weighted images were obtained (TR 250 ms, TE 18 MS, NEX 16). Rats were imaged prior to injection of contrast agent. […] The rats were then imaged immediately after injection and then at 24 hours.

For O=C([O-])CN(CCN(CC(=O)[O-])CC(=O)O)CCN(CC(=O)[O-])CC(=O)O.[Gd+3] [Gd-DTPA], the tumor enhancement (rat tumor model, standard dose of 0.1 mmol Gd/kG) was 70% and the “wash out of tumors” value (rat, in vivo) was “rapidly wash out of tumors”.
